Test results from US20250313619A1, “RISANKIZUMAB COMPOSITIONS” (ABBVIE INC., priority 0001, published 2025).

Assays:
PLA2G15 = target: T1, PLA2G15 (Cricetulus griseus, UniProt G3HKV9); assay: PLA2G15 inhibition study: fosinopril spiked in DP2 material, PS20 HPLC-CAD subspecies method; assay type: biochemical; details: room temperature in dark for two weeks
T1 construct: PLA2 in the liquid compositions described herein is derived from a CHO cell line; endogenous in cells; host or cells: CHO cells expressing risankizumab (host-cell protein carried into drug substance/drug product)
T1 sequence (G3HKV9 34-412): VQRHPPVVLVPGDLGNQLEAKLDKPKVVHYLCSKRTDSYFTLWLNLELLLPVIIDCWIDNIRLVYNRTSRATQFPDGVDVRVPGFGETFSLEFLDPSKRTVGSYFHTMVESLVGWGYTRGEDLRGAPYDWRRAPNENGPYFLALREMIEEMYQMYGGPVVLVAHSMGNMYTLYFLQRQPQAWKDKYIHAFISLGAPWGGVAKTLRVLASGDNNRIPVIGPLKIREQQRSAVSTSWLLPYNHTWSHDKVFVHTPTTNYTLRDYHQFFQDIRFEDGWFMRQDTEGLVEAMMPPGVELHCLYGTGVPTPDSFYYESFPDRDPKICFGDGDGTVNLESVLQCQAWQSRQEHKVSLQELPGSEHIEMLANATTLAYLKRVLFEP
Description: Fosinopril is an angiotensin converting enzyme (ACE) inhibitor, which is been used to treat hypertension and some types of chronic heart failure (Murdoch et al. (1992) Drugs 43:123-140). […] All samples (including non-spiked samples) were incubated at room temperature in the dark for two weeks. PS20 degradation levels in those samples were tested with a PS20 subspecies method. PS20 degradation levels in those samples were compared with negative controls (non-spiked samples kept at room temperature in dark for two weeks) and positive controls (non-spiked samples kept at −80° C. before testing). […] The chemical structure of fosinopril is shown below.
Fosinopril sodium was dissolved in Mill-Q water at a concentration of 0.5 mg/mL. The solution was aseptically filtered with a 0.22 syringe filter before use. During the filtration, the syringe filter was flushed with Mill-Q water and then with the 0.5 mg/mL fosinopril water solution. Lower concentrations of fosinopril water solutions were aseptically diluted with Mill-Q water. More detailed sample preparation can be found in Table 22. All vials were glass vials, and solutions were well mixed before incubation. Samples were incubated at room temperature in dark for two weeks before testing.
A PS20 HPLC-CAD subspecies method was used to test the PS20 levels qualitatively as well as profiles in all samples. Solutions were transferred to HPLC vials and diluted with Milli-Q water (1:1 dilution). All HPLC vials were mixed well before placed in an HPLC autosampler for testing. Sample descriptions and labels can be found in Table 23.

[1] = target: T2, PLA2G15 (Phospholipase A2 Group XV) (Homo sapiens, UniProt Q8NCC3); details: Hinkovska-Galcheva et al. (2021); read-out: IC50, inhibition of PLA2G15 activity; cited from earlier work
T2 sequence (Q8NCC3 34-412): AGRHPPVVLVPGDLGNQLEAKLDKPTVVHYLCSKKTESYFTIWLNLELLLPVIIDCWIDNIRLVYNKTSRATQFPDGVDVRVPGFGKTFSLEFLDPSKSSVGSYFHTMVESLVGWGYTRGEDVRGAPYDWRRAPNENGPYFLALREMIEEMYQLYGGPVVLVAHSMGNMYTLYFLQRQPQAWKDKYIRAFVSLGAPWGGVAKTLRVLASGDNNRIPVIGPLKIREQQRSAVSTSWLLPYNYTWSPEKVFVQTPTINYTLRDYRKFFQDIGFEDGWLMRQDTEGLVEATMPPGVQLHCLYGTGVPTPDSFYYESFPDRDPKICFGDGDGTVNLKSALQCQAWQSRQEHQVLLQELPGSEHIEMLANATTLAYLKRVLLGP

protection (inhibition) of PS20 degradation in the DP2 material (PLA2G15; 0.9 μg/mL spiking level, vs non-spiked control, listed as Fosinopril): showed protection (inhibition)
protection (inhibition) of PS20 degradation in the DP2 material (PLA2G15; 0.9-83.3 ug/mL spiked, listed as Fosinopril): dose dependent protection (inhibition)
SMILES: CCC(=O)O[C@@H](O[P@](=O)(CCCCc1ccccc1)CC(=O)N1C[C@H](C2CCCCC2)C[C@H]1C(=O)O)C(C)C [fosinopril]
protection (inhibition) of PS20 degradation in the DP2 material (PLA2G15; 0.9 μg/mL spiking level, vs non-spiked control): reduction of PS20 degradation has been observed
protection (inhibition) of PS20 degradation in the DP2 material (PLA2G15; 0.9-83.3 ug/mL spiked): Dose (concentration) dependent protection (inhibition)
IC50 [1]: ~0.18 µM
